The values below come from patent publication US12702693B2, “Treatment of cystic fibrosis by delivery of codon-optimized mRNA encoding CFTR” (Translate Bio, Inc., priority 2017, dated 2026).

The conditions of data set [1]: available data; cited from earlier work.
Data set [2] concerns human bronchial epithelial cells. Nature of the data set: Ussing chamber assay of Forskolin-induced chloride channel activity. The format is cell-based. The following applies: all groups. As to the method:
The changes in chloride transport across the bronchial epithelial cell membrane was measured by short circuit current output in an Ussing epithelial voltage clamp apparatus (i.e., a Ussing chamber). Specifically, using an established Ussing Chamber procedure (Charles River Laboratories), hCFTR mRNA encapsulated in a liposome comprising ICE, DOPE, and a PEG-modified lipid was incubated for 2 or 4 hours on the apical (mucosal) or basolateral (serosal) sides, or both sides, of human bronchial epithelial cells. A buffer blank also was included as a control, for example, to assess chloride transport by endogenous CFTR in the cells. Next, Forskolin-induced chloride channel activity was measured using the Ussing chamber assay.

As to `c1c[nH]cn1` [imidazole], the mutagenicity/genotoxicity data result in data set [1] was “negative”.

As to `CCC(=O)O` [propionic acid], the mutagenicity/genotoxicity data result in data set [1] is recorded as “negative”.

`CC(C)CCC[C@@H](C)[C@H]1CC[C@H]2[C@@H]3CC=C4C[C@@H](O)CC[C@]4(C)[C@H]3CC[C@]12C` [cholesterol]: in data set [1], the mutagenicity/genotoxicity data entry is recorded as “negative”.

Regarding `O=C(O)c1ccc(/C=C2\SC(=S)N(c3cccc(C(F)(F)F)c3)C2=O)cc1` [CFTR inhibitor-172], the “chloride activity after addition of CFTR inhibitor” value in data set [2] is listed as “inhibited”.
